# Experimental data as given in ChEMBL document CHEMBL3400138, “Synthesis of 3-azabicyclo[3.2.2]nonanes and their antiprotozoal activities” (Bioorg Med Chem Lett, 2015).
# Key:
# [1] = Selectivity index, ratio of CC50 for rat L6 cells to IC50 for Trypanosoma brucei rhodesiense STIB900; type: functional
# [2] = tested on: Trypanosoma brucei rhodesiense; test: Antitrypanosomal activity against Trypanosoma brucei rhodesiense STIB900 bloodstream forms after 72 hrs by alamar blue assay; type: functional, organism-based; conditions: STIB900, 72 h
# [3] = tested on: Plasmodium falciparum; test: Antiplasmodial activity against chloroquine and pyrimethamine resistant Plasmodium falciparum K1 infected in human red blood cells assessed as reduction in parasite viability after 48 hrs by [3H]-hypoxanthine incorporation assay; type: functional, organism-based
# [4] = tested on: L6; test: Cytotoxicity against rat L6 cells after 72 hrs by alamar blue assay; type: cell-based; conditions: L6, 72 h
# [5] = Selectivity index, ratio of CC50 for rat L6 cells to IC50 for chloroquine and pyrimethamine resistant Plasmodium falciparum K1; type: functional
# [6] = tested on: Plasmodium berghei; test: Antiplasmodial activity against GFP-transfected Plasmodium berghei ANKA infected in NMRI mouse assessed as reduction in parasitemia at 10 mg/kg, ip administered 4, 24, 48 and 72 hrs post infection by FACS analysis; type: functional; conditions: route intraperitoneal
# [7] = tested on: Plasmodium berghei; test: Antiplasmodial activity against GFP-transfected Plasmodium berghei ANKA infected in NMRI mouse assessed as mean survival day at 10 mg/kg, ip administered 4, 24, 48 and 72 hrs post infection (reference value: 4 days); type: functional; conditions: route intraperitoneal
# [8] = tested on: Escherichia coli; test: Antibacterial activity against Escherichia coli ATCC 25922 at 100 ug after 24 hrs; type: functional; conditions: ATCC 25922, 24 h, read-out: DIZ
# [9] = tested on: Staphylococcus aureus; test: Antibacterial activity against Staphylococcus aureus ATCC 25923 at 100 ug after 24 hrs; type: functional; conditions: ATCC 25923, 24 h, read-out: DIZ
# [10] = tested on: Enterococcus faecalis; test: Antibacterial activity against Enterococcus faecalis ATCC 14506 at 100 ug after 24 hrs; type: functional; conditions: ATCC 14506, 24 h, read-out: DIZ
# [11] = tested on: Mycolicibacterium smegmatis; test: Antimycobacterial activity against Mycobacterium smegmatis ATCC 14468 assessed as inhibition of bacterial growth after 72 hrs by MTT dye based microbroth dilution assay; type: functional; conditions: ATCC 14468, 72 h
Structure (SMILES),Ratio IC50 [1],IC50 [2] [µM],IC50 [3] [µM],IC50 [4] [µM],Ratio IC50 [5],further results
Cl.c1ccc(C2CC3(N4CCOCC4)CCNC2C(c2ccccc2)C3)cc1 (racemic),21.9,9.44,6.84,> 207,30.22,–
Cl.O=C1NCC2(N3CCOCC3)CC(c3ccccc3)C1C(c1ccccc1)C2 (configuration not stated),1.9,128,> 13.3,> 239,18,–
CCN(CC)CCCC(C)Nc1ccnc2cc(Cl)ccc12 (configuration not stated) [CHLOROQUINE],–,–,–,–,–,inhibition in vivo at 10 mg/kg [6]: 99.6%; MSD [7]: 20 days
CN(C)C12CC(=O)NC(C(c3ccccc3)C1)C(c1ccccc1)C2.Cl (racemic),7.1,–,–,–,–,–
Cl.Clc1ccc(C2CC3(N4CCCC4)CCNC2C(c2ccc(Cl)cc2)C3)cc1 (racemic),152,–,–,–,–,–
Cl.c1ccc(C2CC3(N4CCCCC4)CNCC2C(c2ccccc2)C3)cc1 (racemic),60.5,2.02,0.75,122,163.1,–
CC1(C)S[C@@H]2[C@H](NC(=O)Cc3ccccc3)C(=O)N2[C@H]1C(=O)O [PENICILLIN G],–,–,–,–,–,zone of inhibition at 100 µg/disc [8]: 15 mm; zone of inhibition at 100 µg/disc [9]: 30 mm; zone of inhibition at 100 µg/disc [10]: 20 mm
Cl.O=C1CC2(N3CCCCC3)CC(c3ccccc3)C(N1)C(c1ccccc1)C2 (racemic),6.4,–,–,–,–,–
Cl.Clc1ccc(C2CC3(N4CCCCC4)CCNC2C(c2ccc(Cl)cc2)C3)cc1 (racemic),124,–,–,–,–,–
NNC(=O)c1ccncc1 [ISONIAZID],–,–,–,–,–,MIC [11]: 4 µg/mL
Cl.c1ccc(C2CC3(N4CCCCC4)CCNC2C(c2ccccc2)C3)cc1 (racemic),13.7,–,–,–,–,–
CN(C)C12CNCC(C(c3ccc(Cl)cc3)C1)C(c1ccc(Cl)cc1)C2.Cl (configuration not stated),26.4,0.34,0.77,8.96,11.63,–
C[C@@H]1CC[C@H]2[C@@H](C)C(=O)O[C@@H]3O[C@@]4(C)CC[C@@H]1[C@]32OO4 [ARTEMISININ],–,–,0.0064,–,–,–
